Results: article PMC9597602, “Metal Complexes as Antifungals? From a Crowd-Sourced Compound Library to the First In Vivo Experiments” (JACS Au, 2022)

Experiments:
[1] = tested on: HEK-293 human embryonic kidney cells ATCC CRL-1573; conditions: initial CO-ADD screening, 20 h; for CC50: read-out: HEK CC50
Description: The cells were incubated together with the compounds for 20 h at 37 °C in 5% CO2. […] Tamoxifen (Sigma T5648) was used as internal control on each plate.

[2] = tested on: Candida albicans ATCC 90028 NCCLS11; assay: Antifungal MIC assay; format: cell-based; conditions: initial CO-ADD dose-response screening; ≥80% growth inhibition
Description: For the fungal assays, both fungi (yeast) strains were cultured for 3 days on Yeast Extract-Peptone Dextrose (YPD; Becton Dickinson 242720) agar at 30 °C. A yeast suspension of 1 × 10^6 to 5 × 10^6 CFU/mL (as determined by OD530) was prepared from five colonies from the agar plates, subsequently diluted with Yeast Nitrogen Base media (YNB; Becton Dickinson 233520), and added to each well of the compound containing plates (384-well plates, NBS; Corning CLS3640), giving a final cell density of 2.5 × 10^3 CFU/mL and a total volume of 50 μL. Plates were covered and incubated at 35 °C for 36 h without shaking. […] […], equivalent to ″optically clear-to-slightly hazy″ or MIC score of 0–1 as per CLSI guidelines M27 Reference Method for Broth Dilution Antifungal Susceptibility Testing of Yeasts. […] Fluconazole (Sigma F8929) was used as internal control on each plate for all strains. All compounds were tested as two technical replicates in two to four independent biological assays, n = 4–8 final data.

[3] = tested on: human red blood cells; format: cell-based; conditions: initial CO-ADD screening, 1 h; 10% hemolysis
Description: Human whole blood (Australian Red Cross) was washed three times with 3 vol of 0.9% NaCl and resuspended in a concentration of 0.5 × 10^8 cells/mL, determined by a manual cell count in a Neubauer hemocytometer. […] After incubation, the plates were centrifuged at 1000g for 10 min to pellet cells and debris; 25 μL of the supernatant was then transferred to reading plates (384-well, polystyrene plated (PS), Corning CLS3680), with hemolysis determined by measuring the supernatant absorbance at […] (OD405) using cells without inhibitors as negative control and cells with 1% Triton X-100 (Sigma T8787) as positive control. […] Melittin (Sigma M2272) was used as internal control on each plate.

[4] = tested on: Pseudomonas aeruginosa ATCC 27853 QC control strain; assay: CO-ADD antibacterial MIC assay; format: cell-based; conditions: initial CO-ADD dose-response screening; ≥80% growth inhibition
Description: (§1) For the all the bacterial assays, each bacterial strain was cultured in cation-adjusted Mueller Hinton broth (CAMHB; Bacto Laboratories 212322) at 37 °C overnight. A sample of each culture was then diluted 40-fold in fresh CAMHB and incubated at 37 °C for 1.5–3 h. The resultant mid-log phase cultures were diluted with CAMHB (CFU/mL measured by OD600) and then added to each well of the compound-containing plates (384-well non-binding surface (NBS) plates; Corning CLS3640), giving a cell density of 5 × 10^5 CFU/mL and a total volume of 50 μL. Plates were covered and incubated at 37 °C for 18 h without shaking. Inhibition of bacterial growth was determined by measuring the absorbance at 600 nm (OD600) using media only as negative control and bacteria without inhibitors as positive control. MIC values were determined as the lowest concentration at which the growth was inhibited by ≥80% (equivalent to no visible growth by the eye). Colistin sulfate (Sigma C4461) and vancomycin HCl (Sigma 861987) were used as internal controls on each plate for Gram-negative and Gram-positive bacteria, respectively. All compounds were tested as two technical replicates in two independent biological assays, n = 4 final data.

[5] = tested on: Acinetobacter baumannii ATCC 19606 type strain; assay: CO-ADD antibacterial MIC assay; format: cell-based; conditions: initial CO-ADD dose-response screening; ≥80% growth inhibition
Description: as §1

[6] = tested on: Escherichia coli ATCC 25922 FDA control strain; assay: CO-ADD antibacterial MIC assay; format: cell-based; conditions: initial CO-ADD dose-response screening; ≥80% growth inhibition
Description: as §1

[7] = tested on: methicillin-resistant Staphylococcus aureus ATCC 43300; assay: CO-ADD antibacterial MIC assay; format: cell-based; conditions: initial CO-ADD dose-response screening; ≥80% growth inhibition
Description: as §1

[8] = tested on: Cryptococcus neoformans H99 ATCC 208821 type strain; assay: Antifungal MIC assay; format: cell-based; conditions: initial CO-ADD dose-response screening; ≥80% growth inhibition
Description: For the fungal assays, both fungi (yeast) strains were cultured for 3 days on Yeast Extract-Peptone Dextrose (YPD; Becton Dickinson 242720) agar at 30 °C. A yeast suspension of 1 × 10^6 to 5 × 10^6 CFU/mL (as determined by OD530) was prepared from five colonies from the agar plates, subsequently diluted with Yeast Nitrogen Base media (YNB; Becton Dickinson 233520), and added to each well of the compound containing plates (384-well plates, NBS; Corning CLS3640), giving a final cell density of 2.5 × 10^3 CFU/mL and a total volume of 50 μL. Plates were covered and incubated at 35 °C for 36 h without shaking. […] MIC values were recorded as the lowest concentration at which the growth was inhibited by ≥80%, equivalent to ″optically clear-to-slightly hazy″ or MIC score of 0–1 as per CLSI guidelines M27 Reference Method for Broth Dilution Antifungal Susceptibility Testing of Yeasts. […] Fluconazole (Sigma F8929) was used as internal control on each plate for all strains. All compounds were tested as two technical replicates in two to four independent biological assays, n = 4–8 final data.

Structure (SMILES) | HEK CC50 [1] | MIC Ca [2] | RBC HC10 [3] | MIC Pa [4] | MIC Ab [5] | MIC Ec [6] | MIC MRSA (Sa) [7] | MIC Cn [8] | CC50 [1]
Cc1cccc2[n+]1[Pd-2]([Cl])([Cl])[n+]1c(C)cccc1C(C(C)(C)C)=C=C2c1ccccc1 [HM_C2] | 1.1 µg/mL | <= 0.25 μg/mL | > 32 µg/mL | > 32 µg/mL | 32 µg/mL | > 32 µg/mL | <= 0.25 μg/mL | <= 0.25 μg/mL | –
O=C([O][Eu]([O]C(=O)c1ccc(F)cc1F)[O]C(=O)c1ccc(F)cc1F)c1ccc(F)cc1F.c1ccc(-c2ccnc3c2ccc2c(-c4ccccc4)ccnc23)cc1 [Eu-S2] | – | 10 µM | 0.7 µM | > 20 µM | > 20 µM | > 20 µM | 1.25 µM | 0.625 µM | 15.9 µM
O=C([O][Ag])c1ccc(N2N=C(/C=C/c3ccccc3)CC2c2ccccc2)cc1.O=C([O][Ag])c1ccc(N2N=C(/C=C/c3ccccc3)CC2c2ccccc2)cc1 (racemic) [Ag3] | > 32 µg/mL | 16 µg/mL | > 32 µg/mL | > 32 µg/mL | > 32 µg/mL | > 32 µg/mL | > 32 µg/mL | 16 µg/mL | –
O=[N+]([O-])[O-].[Ag+] [AgNO3, reference compound] | > 32 µg/mL | 0.25 µg/mL | 8.9 µg/mL | 0.25 µg/mL | 0.25 µg/mL | 0.25 µg/mL | 2 µg/mL | 0.25 µg/mL | –
Cc1cccc(C2(c3ccccc3)[C]([Au-][Cl])=C(C(C)(C)C)c3cccc(C)[n+]32)n1 (centres unmarked) [Au-S15] | > 32 µg/mL | <= 0.25 μg/mL | > 32 µg/mL | 32 µg/mL | 32 µg/mL | > 32 µg/mL | 2 µg/mL | <= 0.25 μg/mL | –
O=C([O][Eu]([O]C(=O)c1ccc(F)cc1F)[O]C(=O)c1ccc(F)cc1F)c1ccc(F)cc1F.c1cnc2c(c1)ccc1cccnc12 [Eu-S5] | – | > 20 µM | 0.5 µM | > 20 µM | > 20 µM | > 20 µM | > 20 µM | 20 µM | 13.6 µM
Cc1cccc(C(=C=C(c2cccc(C)n2)C(C)(C)C)c2ccccc2)n1.[Cl][Pt]([Cl])([Cl])[Cl] [HM_C5] | > 32 µg/mL | 32 µg/mL | > 32 µg/mL | > 32 µg/mL | > 32 µg/mL | > 32 µg/mL | > 32 µg/mL | > 32 µg/mL | –
O=C([O][Eu]([O]C(=O)c1ccccc1F)[O]C(=O)c1ccccc1F)c1ccccc1F.c1cnc2c(c1)ccc1cccnc12 [Eu-S6] | – | 20 µM | > 20 µM | > 20 µM | > 20 µM | > 20 µM | > 20 µM | 20 µM | 9.9 µM
Cc1cccc2[n+]1[Au-]([Cl])([Cl])[n+]1c(C)cccc1C(c1ccccc1)=C=C2c1ccccc1.[Cl-] [Au-S11] | > 32 µg/mL | 4 µg/mL | > 32 µg/mL | > 32 µg/mL | > 32 µg/mL | 32 µg/mL | 16 µg/mL | 16 µg/mL | –
O=C([O][Eu]([O]C(=O)c1ccccc1F)[O]C(=O)c1ccccc1F)c1ccccc1F.c1ccc(-c2ccnc3c2ccc2c(-c4ccccc4)ccnc23)cc1 [Eu-S3] | – | 20 µM | > 20 µM | > 20 µM | > 20 µM | > 20 µM | 10 µM | 5 µM | 14.7 µM
